Like-named read-outs stand apart in the source and are kept apart here. Numbered stars: 1 amine (or outer) side, 2 acyl side, 3 side chain; on linkers, the order of the positions; unused ones are H or OH. Bridge positions count the residues as written; N and C are the ends. Square brackets hold non-standard residues; d marks the D form. Peptide text beside a SMILES is read from it. * marks the point of attachment. Pro(trans-4-Ph) = O=C(O)[C@@H]1C[C@@H](c2ccccc2)CN1; Pro(4R-Bn) = O=C(O)[C@@H]1C[C@@H](Cc2ccccc2)CN1; C20 diacid = O=C(O)CCCCCCCCCCCCCCCCCCC(=O)*; Pro(4R-NH2) = N[C@H]1CN[C@H](C(=O)O)C1; γGlu = O=C(O)[C@H](CCC(=O)[*:2])N[*:1]; NMeI = CC[C@H](C)[C@H](NC)C(=O)O; Sar = CNCC(=O)O
Assays:
[1] = molecular target: T1, human amylin receptor 3 (hAMYR3) consisting of hCTR2 co-expressed with human Receptor Activity Modifying Protein 3 (hRAMP3) (Homo sapiens, UniProt O60896+P30988); assay: hAMYR3 assay: induction of cAMP (AlphaScreen cAMP Assay kit) in COS7 cells expressing hAMYR3; format: cell-based
T1 construct: expressed in transfected cells
T1 sequence (P30988 25-474): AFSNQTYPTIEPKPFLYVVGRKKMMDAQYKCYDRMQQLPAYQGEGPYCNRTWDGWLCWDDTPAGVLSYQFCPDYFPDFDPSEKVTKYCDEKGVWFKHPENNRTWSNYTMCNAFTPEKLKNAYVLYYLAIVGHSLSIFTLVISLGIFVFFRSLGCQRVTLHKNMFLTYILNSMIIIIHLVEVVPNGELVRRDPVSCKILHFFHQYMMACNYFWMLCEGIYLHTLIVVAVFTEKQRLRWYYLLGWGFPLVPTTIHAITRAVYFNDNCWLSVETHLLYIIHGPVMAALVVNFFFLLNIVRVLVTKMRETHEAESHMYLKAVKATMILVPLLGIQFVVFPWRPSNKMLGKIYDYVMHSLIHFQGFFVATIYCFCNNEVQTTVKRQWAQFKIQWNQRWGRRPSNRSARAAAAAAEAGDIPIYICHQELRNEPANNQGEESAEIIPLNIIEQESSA
T1 sequence (O60896 24-148 partner): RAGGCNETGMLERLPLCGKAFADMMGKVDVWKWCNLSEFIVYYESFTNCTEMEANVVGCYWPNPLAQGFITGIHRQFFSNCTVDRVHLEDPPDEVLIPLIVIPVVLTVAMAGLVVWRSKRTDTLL
Procedure, shortened: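 Stable COS7 clone co-expressing hCTR2 and hRAMP3, stimulated 15 min at 37° C with increasing peptide in Tyrode buffer pH 7.4 with 100 µM IBMX and 0.1% casein. cAMP measured by AlphaScreen after lysis; EC50 and % efficacy versus pramlintide from 4PL fit.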

[2] = Solubility assessment (turbidity absorbance at 325 nm); format: physicochemical; conditions: stock 2 mg/ml diluted 1:1, ambient temperature (typically 25°C), n=1; for Solubility, Acetate buffer pH 4: 100 mM acetate buffer pH 4.0; for Solubility, Acetate buffer pH 5: 100 mM acetate buffer pH 5.0; for Solubility, Histidine buffer pH 6: 100 mM histidine buffer pH 6.0; for Solubility, Histidine buffer pH 7: 100 mM histidine buffer pH 7.0; for Solubility, Phosphate buffer pH 6: 100 mM phosphate buffer pH 6.0; for Solubility, Phosphate buffer pH 7: 100 mM phosphate buffer pH 7.0; for Solubility, Phosphate buffer pH 7.5: 100 mM phosphate buffer pH7.5
Procedure, shortened: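 Peptide stock (2 mg/ml) in water acidified to pH 2.5 with HCl was diluted 1:1 into 100 mM acetate (pH 4.0, 5.0), histidine (pH 6.0, 7.0) or phosphate (pH 6.0, 7.0, 7.5) buffer. A280 and A325 were read at about 25°C, n=1. A325 ≤ 0.02 meant solubility ≥ 1 mg/ml.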

[3] = molecular target: T2, human calcitonin receptor (hCTR2) (Homo sapiens, UniProt P30988); assay: hCTR2 assay: induction of cAMP (AlphaScreen cAMP Assay kit) in COS7 cells expressing hCTR2; format: cell-based
T2 construct: expressed in transfected cells
T2 sequence (P30988 25-474): T1 sequence (P30988 25-474)
Procedure, shortened: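 Stable hCTR2 clone in RAMP-naive COS7 cells; peptides titrated in Tyrode buffer (pH 7.4) with 100 µM IBMX, 0.1% casein, 15 min at 37° C. cAMP read by AlphaScreen after lysis; EC50 and efficacy relative to pramlintide from 4PL fit.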

Row | EC50 ([1]; cAMP induction in COS7 cells expressing hAMYR3, average of a minimum of 3 determinations, read-out: hAMY R3 EC50) [pM] | EC50 ([3]; cAMP induction in COS7 cells expressing hCTR2, average of a minimum of 3 determinations, read-out: hCTR2 EC50) [pM] | SMILES | Solubility, Acetate buffer pH 4 [2] | Solubility, Acetate buffer pH 5 [2] | Solubility, Histidine buffer pH 6 [2] | Solubility, Histidine buffer pH 7 [2] | Solubility, Phosphate buffer pH 6 [2] | Solubility, Phosphate buffer pH 7 [2] | Solubility, Phosphate buffer pH 7.5 [2] | EC50 [1] [pM] | EC50 [3] [pM]
1 | 210 | 140 | CC[C@H](C)[C@@H](C(=O)N[C@@H](CC(C)C)C(=O)N[C@@H](CO)C(=O)N[C@@H](CO)C(=O)N[C@H](C(=O)N[C@@H](CC(N)=O)C(=O)N[C@H](C(=O)NCC(=O)N[C@@H](CO)C(=O)N[C@@H](CC(N)=O)C(=O)N[C@H](C(=O)N1C[C@H](N)C[C@H]1C(N)=O)[C@@H](C)O)C(C)C)[C@@H](C)O)N(C)C(=O)CN(C)C(=O)[C@H](Cc1ccccc1)NC(=O)[C@H](CC(N)=O)NC(=O)[C@H](CC(N)=O)NC(=O)[C@H](CO)NC(=O)[C@H](CO)NC(=O)[C@H](CCCNC(=N)N)NC(=O)[C@H](Cc1c[nH]cn1)NC(=O)[C@H](CC(C)C)NC(=O)[C@H](Cc1ccccc1)NC(=O)[C@H](CCC(=O)O)NC(=O)[C@H](C)NC(=O)[C@H](CC(C)C)NC(=O)[C@H](CCCNC(=N)N)NC(=O)[C@H](CCC(N)=O)NC(=O)[C@@H](NC(=O)[C@H](C)NC(=O)[C@@H]1CSSC[C@H](NC(=O)[C@H](CCCNC(=N)N)NC(=O)CC[C@H](NC(=O)CCCCCCCCCCCCCCCCCCC(=O)O)C(=O)O)C(=O)N[C@@H](CC(N)=O)C(=O)N[C@@H]([C@@H](C)O)C(=O)N[C@@H](C)C(=O)N[C@@H]([C@@H](C)O)C(=O)N1)[C@@H](C)O [Compound 111, [19CD]-isoGlu-RC()NTATC()ATQRLAEFLHRSSNNF-Gly(Me)-Ile(Me)-LSSTNVGSNT-Apr-NH2] ({C20 diacid-γGlu}-RCNTATCATQRLAEFLHRSSNNF[Sar][NMeI]LSSTNVGSNT[Pro(4R-NH2)]-NH2; disulfide 2-7) | SS (SS indicates solubility ≥ 1mg/ml) | SS (SS indicates solubility ≥ 1mg/ml) | SS (SS indicates solubility ≥ 1mg/ml) | SS (SS indicates solubility ≥ 1mg/ml) | SS (SS indicates solubility ≥ 1mg/ml) | SS (SS indicates solubility ≥ 1mg/ml) | SS (SS indicates solubility ≥ 1mg/ml) | – | –
2 | – | – | CC[C@H](C)[C@@H](C(=O)N[C@@H](CC(C)C)C(=O)N[C@@H](CO)C(=O)N[C@@H](CO)C(=O)N[C@H](C(=O)N[C@@H](CC(N)=O)C(=O)N[C@H](C(=O)NCC(=O)N[C@@H](CO)C(=O)N[C@@H](CC(N)=O)C(=O)N[C@H](C(=O)N1C[C@H](c2ccccc2)C[C@H]1C(N)=O)[C@@H](C)O)C(C)C)[C@@H](C)O)N(C)C(=O)[C@H](C)NC(=O)CN(C)C(=O)[C@H](Cc1ccccc1)NC(=O)[C@H](CC(N)=O)NC(=O)[C@H](CC(N)=O)NC(=O)[C@H](CO)NC(=O)[C@H](CO)NC(=O)[C@H](CCCNC(=N)N)NC(=O)[C@H](Cc1c[nH]cn1)NC(=O)[C@H](CC(C)C)NC(=O)[C@H](Cc1ccccc1)NC(=O)[C@H](CCC(=O)O)NC(=O)[C@H](C)NC(=O)[C@H](CC(C)C)NC(=O)[C@H](CCCNC(=N)N)NC(=O)[C@H](CCC(N)=O)NC(=O)[C@@H](NC(=O)[C@H](C)NC(=O)[C@@H]1CSSC[C@H](NC(=O)[C@H](CCCNC(=N)N)NC(=O)CC[C@H](NC(=O)CCCCCCCCCCCCCCCCCCC(=O)O)C(=O)O)C(=O)N[C@@H](CC(N)=O)C(=O)N[C@@H]([C@@H](C)O)C(=O)N[C@@H](C)C(=O)N[C@@H]([C@@H](C)O)C(=O)N1)[C@@H](C)O [Compound 112, [19CD]-isoGlu-RC()NTATC()ATQRLAEFLHRSSNNF-Gly(Me)-A-Ile(Me)-LSSTNVGSNT-Php-NH2] ({C20 diacid-γGlu}-RCNTATCATQRLAEFLHRSSNNF[Sar]A[NMeI]LSSTNVGSNT[Pro(trans-4-Ph)]-NH2; disulfide 2-7) | SS (SS indicates solubility ≥ 1mg/ml) | SS (SS indicates solubility ≥ 1mg/ml) | SS (SS indicates solubility ≥ 1mg/ml) | II (II indicates solubility ≤ 1 mg/ml) | II (II indicates solubility ≤ 1 mg/ml) | SS (SS indicates solubility ≥ 1mg/ml) | II (II indicates solubility ≤ 1 mg/ml) | 150 | 160
3 | – | – | CC[C@H](C)[C@@H](C(=O)N[C@@H](CC(C)C)C(=O)N[C@@H](CO)C(=O)N[C@@H](CO)C(=O)N[C@H](C(=O)N[C@@H](CC(N)=O)C(=O)N[C@H](C(=O)NCC(=O)N[C@@H](CO)C(=O)N[C@@H](CC(N)=O)C(=O)N[C@H](C(=O)N1C[C@H](Cc2ccccc2)C[C@H]1C(N)=O)[C@@H](C)O)C(C)C)[C@@H](C)O)N(C)C(=O)[C@H](C)NC(=O)CN(C)C(=O)[C@H](Cc1ccccc1)NC(=O)[C@H](CC(N)=O)NC(=O)[C@H](CC(N)=O)NC(=O)[C@H](CO)NC(=O)[C@H](CO)NC(=O)[C@H](CCCNC(=N)N)NC(=O)[C@H](Cc1c[nH]cn1)NC(=O)[C@H](CC(C)C)NC(=O)[C@H](Cc1ccccc1)NC(=O)[C@H](CCC(=O)O)NC(=O)[C@H](C)NC(=O)[C@H](CC(C)C)NC(=O)[C@H](CCCNC(=N)N)NC(=O)[C@H](CCC(N)=O)NC(=O)[C@@H](NC(=O)[C@H](C)NC(=O)[C@@H]1CSSC[C@H](NC(=O)[C@H](CCCNC(=N)N)NC(=O)CC[C@H](NC(=O)CCCCCCCCCCCCCCCCCCC(=O)O)C(=O)O)C(=O)N[C@@H](CC(N)=O)C(=O)N[C@@H]([C@@H](C)O)C(=O)N[C@@H](C)C(=O)N[C@@H]([C@@H](C)O)C(=O)N1)[C@@H](C)O [Compound 114, [19CD]-isoGlu-RC()NTATC()ATQRLAEFLHRSSNNF-Gly(Me)-A-Ile(Me)-LSSTNVGSNT-Bep-NH2] ({C20 diacid-γGlu}-RCNTATCATQRLAEFLHRSSNNF[Sar]A[NMeI]LSSTNVGSNT[Pro(4R-Bn)]-NH2; disulfide 2-7) | SS (SS indicates solubility ≥ 1mg/ml) | SS (SS indicates solubility ≥ 1mg/ml) | SS (SS indicates solubility ≥ 1mg/ml) | II (II indicates solubility ≤ 1 mg/ml) | II (II indicates solubility ≤ 1 mg/ml) | II (II indicates solubility ≤ 1 mg/ml) | II (II indicates solubility ≤ 1 mg/ml) | 180 | 210
4 | – | – | CC[C@H](C)[C@@H](C(=O)N[C@@H](CC(C)C)C(=O)N[C@@H](CO)C(=O)N[C@@H](CO)C(=O)N[C@H](C(=O)N[C@@H](CC(N)=O)C(=O)N[C@H](C(=O)NCC(=O)N[C@@H](CO)C(=O)N[C@@H](CC(N)=O)C(=O)N[C@H](C(=O)N[C@@H](Cc1ccccc1)C(N)=O)[C@@H](C)O)C(C)C)[C@@H](C)O)N(C)C(=O)[C@H](C)NC(=O)CN(C)C(=O)[C@H](Cc1ccccc1)NC(=O)[C@H](CC(N)=O)NC(=O)[C@H](CC(N)=O)NC(=O)[C@H](CO)NC(=O)[C@H](CO)NC(=O)[C@H](CCCNC(=N)N)NC(=O)[C@H](Cc1c[nH]cn1)NC(=O)[C@H](CC(C)C)NC(=O)[C@H](Cc1ccccc1)NC(=O)[C@H](CCC(=O)O)NC(=O)[C@H](C)NC(=O)[C@H](CC(C)C)NC(=O)[C@H](CCCNC(=N)N)NC(=O)[C@H](CCC(N)=O)NC(=O)[C@@H](NC(=O)[C@H](C)NC(=O)[C@@H]1CSSC[C@H](NC(=O)[C@H](CCCNC(=N)N)NC(=O)CC[C@H](NC(=O)CCCCCCCCCCCCCCCCCCC(=O)O)C(=O)O)C(=O)N[C@@H](CC(N)=O)C(=O)N[C@@H]([C@@H](C)O)C(=O)N[C@@H](C)C(=O)N[C@@H]([C@@H](C)O)C(=O)N1)[C@@H](C)O [Compound 115, [19CD]-isoGlu-RC()NTATC()ATQRLAEFLHRSSNNF-Gly(Me)-A-Ile(Me)-LSSTNVGSNTF-NH2] ({C20 diacid-γGlu}-RCNTATCATQRLAEFLHRSSNNF[Sar]A[NMeI]LSSTNVGSNTF-NH2; disulfide 2-7) | SS (SS indicates solubility ≥ 1mg/ml) | SS (SS indicates solubility ≥ 1mg/ml) | SS (SS indicates solubility ≥ 1mg/ml) | II (II indicates solubility ≤ 1 mg/ml) | II (II indicates solubility ≤ 1 mg/ml) | SS (SS indicates solubility ≥ 1mg/ml) | II (II indicates solubility ≤ 1 mg/ml) | 370 | 470

Reference: patent publication EP3046573B1, “AMYLIN ANALOGUES” (Zealand Pharma A/S, priority 2013, dated 2015)
